Test results from patent US8231888B2, “Isoxazolines for controlling invertebrate pests” (priority 2005, dated 2012).

Columns and labels:
Type in all cases: in vivo
[1] = system: fall armyworm (Spodoptera frugiperda); assay: Test B: control of fall armyworm on corn (maize) plant, foliar spray; settings: sprayed at 250 and/or 50 ppm; no asterisk (not limited to 250 ppm)
Experimental: (§1) Test compounds were formulated using a solution containing 10% acetone, 90% water and 300 ppm X-77™ Spreader Lo-Foam Formula non-ionic surfactant containing alkylarylpolyoxyethylene, free fatty acids, glycols and isopropanol (Loveland Industries, Inc. Greeley, Colo., USA). The formulated compounds were applied in 1 mL of liquid through a SUJ2 atomizer nozzle with 1/8 JJ custom body (Spraying Systems Co. Wheaton, Ill., USA) positioned 1.27 cm (0.5 inches) above the top of each test unit. All experimental compounds in these tests were sprayed at 250 and/or 50 ppm, and the test was replicated three times. After spraying of the formulated test compound, each test unit was allowed to dry for 1 h and then a black, screened cap was placed on top. The test units were held for 6 days in a growth chamber at 25° C. and 70% relative humidity. Plant feeding damage was then visually assessed based on foliage consumed and a pest mortality rating was also counted and calculated for each test unit.
For evaluating control of fall armyworm (Spodoptera frugiperda) the test unit consisted of a small open container with a 4-5-day-old corn (maize) plant inside. This was pre-infested (using a core sampler) with 10-15 1-day-old larvae on a piece of insect diet. Test compounds were formulated and sprayed at 250 and/or 50 ppm as described for Test A and replicated three times. After spraying, the test units were maintained in a growth chamber and then the control efficacy was rated for each test unit as described for Test A.

[2] = system: diamondback moth (Plutella xylostella); assay: Test A: control of diamondback moth on radish plant, foliar spray; settings: sprayed at 250 and/or 50 ppm, 6 days, 25° C.; no asterisk (not limited to 250 ppm)
From the text: For evaluating control of diamondback moth (Plutella xylostella) the test unit consisted of a small open container with a 12-14-day-old radish plant inside. This was pre-infested with about 50 neonate larvae that were dispensed into the test unit via corn cob grits using a bazooka inoculator. The larvae moved onto the test plant after being dispensed into the test unit.
as §1

[3] = system: western flower thrips (Frankliniella occidentalis); assay: Test D: control of western flower thrips on Soleil bean plant, contact and/or systemic; settings: sprayed at 250 and/or 50 ppm, 6 days, 25° C.; no asterisk (not limited to 250 ppm)
Experimental: as §1
For evaluating control of the western flower thrips (Frankliniella occidentalis) through contact and/or systemic means, the test unit consisted of a small open container with a 5-7 day old Soleil Bean plant inside. Test compounds were formulated and sprayed at 250 and/or 50 ppm, and the test was replicated three times as described for Test A. After spraying, the test units were allowed to dry for 1 hour and then 22-27 adult thrips were added to each unit and then a black, screened cap was placed on top. The test units were held for 6 days at 25° C. and 45-55% relative humidity. A mortality rating was assessed along with a plant damage rating for each test unit.

[4] = system: cat flea (Ctenocephalides felis Bouche); assay: Test E: control of cat flea on orally dosed CD-1 mouse; settings: 10 mg/kg oral, fleas applied 2 h after dosing, mortality 48 hours after flea application
Experimental: For evaluating control of the cat flea (Ctenocephalides felis Bouche), a CD-1® mouse (about 30 g, male, obtained from Charles River Laboratories, Wilmington, Mass.) was orally dosed with a test compound in an amount of 10 mg/kg solubilized in propylene glycol/glycerol formal (60:40). Two hours after oral administration of the test compound, approximately 8 to 16 adult fleas were applied to each mouse. The fleas were then evaluated for mortality 48 hours after flea application to the mouse.

SMILES	control efficacy (20% or less feeding damage or 80% or more mortality) [1]	control efficacy (20% or less feeding damage or 80% or more mortality) [2]	control efficacy (20% or less feeding damage or 80% or more mortality) [3]	flea mortality [4]
C#CCNC(=O)c1ccc(C2=NOC(c3cc(Cl)cc(Cl)c3)(C(F)(F)F)C2)c2ccccc12 (stereo not shown) [Compound 19]	very good to excellent levels of control efficacy	very good to excellent levels of control efficacy	very good to excellent levels of control efficacy	–
FC(F)(F)C1(c2cc(Cl)cc(Cl)c2)CC(c2ccc(C(=S)NCc3ccccn3)c3ccccc23)=NO1 (stereo not shown) [Compound 8]	very good to excellent levels of control efficacy	very good to excellent levels of control efficacy	very good to excellent levels of control efficacy	–
O=C(NCc1ccccn1)c1ccc(C2=NOC(c3cc(Cl)cc(Cl)c3)(C(F)(F)F)C2)c2ccccc12 (stereo not shown) [Compound 2]	very good to excellent levels of control efficacy	very good to excellent levels of control efficacy	very good to excellent levels of control efficacy	≥ 30%
